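Results reflect a 48-hour exposure of cells in 96-well plates to compound at five concentrations. TGI denotes the concentration required for complete inhibition of growth.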
Legend:
Experiment in all cases: NCI anticancer screen, dose series, 48 h
786-0 renal = tested on: 786-0 renal
A498 renal = tested on: A498 renal
A549 NSCLC = tested on: A549 NSCLC
ACHN renal = tested on: ACHN renal
BT-549 breast = tested on: BT-549 breast
CAKI-1 renal = tested on: CAKI-1 renal
CCRF-CEM leukemia = tested on: CCRF-CEM leukemia
COLO 205 colon = tested on: COLO 205 colon
DU-145 prostate = tested on: DU-145 prostate
EKVX NSCLC = tested on: EKVX NSCLC
HCC-2998 colon = tested on: HCC-2998 colon
HCT-116 colon = tested on: HCT-116 colon
HCT-15 colon = tested on: HCT-15 colon
HL-60(TB) leukemia = tested on: HL-60(TB) leukemia
HOP-62 NSCLC = tested on: HOP-62 NSCLC
HOP-92 NSCLC = tested on: HOP-92 NSCLC
HS 578T breast = tested on: HS 578T breast
HT29 colon = tested on: HT29 colon
IGROV1 ovarian = tested on: IGROV1 ovarian
K-562 leukemia = tested on: K-562 leukemia
KM12 colon = tested on: KM12 colon
LOX IMVI melanoma = tested on: LOX IMVI melanoma
M14 melanoma = tested on: M14 melanoma
MALME-3M melanoma = tested on: MALME-3M melanoma
MCF7 breast = tested on: MCF7 breast
MDA-MB-231 breast = tested on: MDA-MB-231 breast
MDA-MB-435 = tested on: MDA-MB-435
MDA-N = tested on: MDA-N
MOLT-4 leukemia = tested on: MOLT-4 leukemia
NCI-H226 lung = tested on: NCI-H226 lung
NCI-H23 lung = tested on: NCI-H23 lung
NCI-H460 lung = tested on: NCI-H460 lung
NCI-H522 lung = tested on: NCI-H522 lung
NCI/ADR-RES ovarian = tested on: NCI/ADR-RES ovarian
OVCAR-3 ovarian = tested on: OVCAR-3 ovarian
OVCAR-4 ovarian = tested on: OVCAR-4 ovarian
OVCAR-5 ovarian = tested on: OVCAR-5 ovarian
OVCAR-8 ovarian = tested on: OVCAR-8 ovarian
PC-3 prostate = tested on: PC-3 prostate
RPMI-8226 leukemia = tested on: RPMI-8226 leukemia
RXF 393 renal = tested on: RXF 393 renal
SF-268 CNS = tested on: SF-268 CNS
SF-295 CNS = tested on: SF-295 CNS
SF-539 CNS = tested on: SF-539 CNS
SK-MEL-2 melanoma = tested on: SK-MEL-2 melanoma
SK-MEL-28 melanoma = tested on: SK-MEL-28 melanoma
SK-MEL-5 melanoma = tested on: SK-MEL-5 melanoma
SK-OV-3 ovarian = tested on: SK-OV-3 ovarian
SN12C renal = tested on: SN12C renal
SNB-19 CNS = tested on: SNB-19 CNS
SNB-75 CNS = tested on: SNB-75 CNS
SR leukemia = tested on: SR leukemia
SW-620 colon = tested on: SW-620 colon
T-47D breast = tested on: T-47D breast
TK-10 renal = tested on: TK-10 renal
U251 CNS = tested on: U251 CNS
UACC-257 melanoma = tested on: UACC-257 melanoma
UACC-62 melanoma = tested on: UACC-62 melanoma
UO-31 renal = tested on: UO-31 renal
DMS 273 small cell lung = tested on: DMS 273 small cell lung
M19-MEL melanoma = tested on: M19-MEL melanoma
SNB-78 CNS = tested on: SNB-78 CNS

## C[C@H](CCc1nc(C#N)c(N)o1)[C@H]1CC[C@H]2[C@@H]3CCC4C[C@@H](O)CC[C@]4(C)[C@H]3C[C@@H](O)[C@]12C (some centres not stated)
786-0 renal
  TGI: 24 µM
A498 renal
  TGI: 36.6 µM
A549 NSCLC
  TGI: 23 µM
ACHN renal
  TGI: 28.6 µM
BT-549 breast
  TGI: 14.7 µM
CAKI-1 renal
  TGI: 28.4 µM
CCRF-CEM leukemia
  TGI: 0.445 µM
COLO 205 colon
  TGI: 31.2 µM
DU-145 prostate
  TGI: 28 µM
EKVX NSCLC
  TGI: 27.8 µM
HCC-2998 colon
  TGI: 31.2 µM
HCT-116 colon
  TGI: 26.4 µM
HCT-15 colon
  TGI: 29.5 µM
HL-60(TB) leukemia
  TGI: 2.38 µM
HOP-62 NSCLC
  TGI: 40.8 µM
HOP-92 NSCLC
  TGI: 28 µM
HS 578T breast
  TGI: 31.6 µM
HT29 colon
  TGI: 27.7 µM
IGROV1 ovarian
  TGI: 25.6 µM
K-562 leukemia
  TGI: 39.6 µM
KM12 colon
  TGI: 28.2 µM
LOX IMVI melanoma
  TGI: 23.8 µM
M14 melanoma
  TGI: 34.2 µM
MALME-3M melanoma
  TGI: 28.4 µM
MCF7 breast
  TGI: 35.7 µM
MDA-MB-231 breast
  TGI: 32.7 µM
MDA-MB-435
  TGI: 30 µM
MDA-N
  TGI: 30.9 µM
MOLT-4 leukemia
  TGI: 20.2 µM
NCI-H226 lung
  TGI: 25.1 µM
NCI-H23 lung
  TGI: 32.7 µM
NCI-H460 lung
  TGI: 31.3 µM
NCI-H522 lung
  TGI: 16.2 µM
NCI/ADR-RES ovarian
  TGI: 25 µM
OVCAR-3 ovarian
  TGI: 27.3 µM
OVCAR-4 ovarian
  TGI: 4.92 µM
OVCAR-5 ovarian
  TGI: 35.1 µM
OVCAR-8 ovarian
  TGI: 20.3 µM
PC-3 prostate
  TGI: 16.3 µM
RPMI-8226 leukemia
  TGI: 6.05 µM
RXF 393 renal
  TGI: 24.7 µM
SF-268 CNS
  TGI: 27.8 µM
SF-295 CNS
  TGI: 30.5 µM
SF-539 CNS
  TGI: 27.6 µM
SK-MEL-2 melanoma
  TGI: 32.2 µM
SK-MEL-28 melanoma
  TGI: 26.6 µM
SK-MEL-5 melanoma
  TGI: 29.5 µM
SK-OV-3 ovarian
  TGI: 28.5 µM
SN12C renal
  TGI: 24.6 µM
SNB-19 CNS
  TGI: 31 µM
SNB-75 CNS
  TGI: 25 µM
SR leukemia
  TGI: 29 µM
SW-620 colon
  TGI: 27.4 µM
T-47D breast
  TGI: 30.3 µM
TK-10 renal
  TGI: 28.6 µM
U251 CNS
  TGI: 26.5 µM
UACC-257 melanoma
  TGI: 20.4 µM
UACC-62 melanoma
  TGI: 25.3 µM
UO-31 renal
  TGI: 16.6 µM

## CCSc1c2ccccc2nc2c(OC)ccc(OC)c12
A498 renal
  TGI: 81.7 µM
A549 NSCLC
  TGI: > 100 µM
CCRF-CEM leukemia
  TGI: > 100 µM
DMS 273 small cell lung
  TGI: 47.9 µM
EKVX NSCLC
  TGI: > 100 µM
HCT-116 colon
  TGI: 37.9 µM
HL-60(TB) leukemia
  TGI: 52.9 µM
HOP-62 NSCLC
  TGI: 97.2 µM
HOP-92 NSCLC
  TGI: 56.5 µM
HT29 colon
  TGI: 63.4 µM
IGROV1 ovarian
  TGI: 63.4 µM
KM12 colon
  TGI: 63.5 µM
M14 melanoma
  TGI: 95.8 µM
M19-MEL melanoma
  TGI: 37.1 µM
MOLT-4 leukemia
  TGI: 73 µM
NCI-H226 lung
  TGI: 55.7 µM
NCI-H460 lung
  TGI: 41.7 µM
NCI-H522 lung
  TGI: > 100 µM
OVCAR-5 ovarian
  TGI: 97.1 µM
OVCAR-8 ovarian
  TGI: 44.9 µM
RXF 393 renal
  TGI: 33.2 µM
SF-268 CNS
  TGI: 55.6 µM
SF-295 CNS
  TGI: 66.2 µM
SK-MEL-28 melanoma
  TGI: 40 µM
SK-OV-3 ovarian
  TGI: 63.2 µM
SNB-19 CNS
  TGI: 72.4 µM
SNB-78 CNS
  TGI: 56.7 µM
SR leukemia
  TGI: 62.5 µM
TK-10 renal
  TGI: 85 µM
U251 CNS
  TGI: 44.9 µM
UACC-257 melanoma
  TGI: 42.8 µM
UACC-62 melanoma
  TGI: 37.9 µM
UO-31 renal
  TGI: 59.8 µM

From PubChem BioAssay (NCI)
